Assay results taken from patent US20250161299A1, “ORAL PCLX-001 IN THE TREATMENT OF HUMAN CANCER” (PACYLEX PHARMACEUTICALS INC., priority 2022, published 2025).
Entries after “also recorded” stand apart in the source; their conditions may differ. Like-named read-outs stand apart in the source and are kept apart here.

Assay: Phase I trial of oral PCLX-001: plasma pharmacokinetics, noncompartmental analysis (Phoenix WinNonlin 8.3)
Type: in vivo, human
Details: for Tmax / Cmax / AUC(0-t) / half-life / AUC(0-inf): human, plasma, po; for Tmax: read-out: Tmax; for AUC(0-t): read-out: AUClast or AUCtau; for half-life: read-out: Half-life (converted)
Source text: The clinical trial is entitled “Phase I Trial of PCLX-001 in B-cell Non-Hodgkin Lymphoma and Advanced Solid Malignancies” and registered at clinicaltrials.gov as NCT04836195. It is a phase I dose-escalation study of oral PCLX-001, conducted in a multicenter, non-randomized, open-label, non-controlled design. The study is comprised of two parts: Part A (single-agent dose escalation) and Part B (single-agent expansion cohorts).
Patients are to receive daily oral PCLX-001 on 28-day cycles, beginning with a starting dose of 20 mg.
[…] After dosing, the blood samples (volumes 3 mL) were serially collected into heparinized tubes from a right forearm butterfly cannula. All blood fluid specimens were frozen and later assayed using a validated UHPLC-MS detection method.
Noncompartmental pharmacokinetic analysis was performed using Phoenix WinNonlin 8.3 using trapezoidal rule and linear up log down methodology. WinNonlin was allowed to pick optimal terminal phases.
Nonparametric superposition was performed using Phoenix WinNonlin Nonparametric Superposition to predict steady state data based upon Day 1 data for each patient. It utilized the 8- and 24-hour time points for estimation of terminal phase for the purposes of this exercise. We simulated 20 mg daily oral dosing and simulations were conducted out to steady state. Results are show in FIGS. 5, 6, and 7.
In the non-compartmental analysis, Phoenix WinNonlin 8.3 trapezoidal rule was used, with linear up log down method. This allowed WinNonlin to pick optimal terminal phase (WinNonlin will accept Rsq adjusted to >0.7). Additional analysis to assess adequate fie included visual inspection of data, and AUCextrap should be <15%.
Phoenix WinNonlin 8.3 trapezoidal rule. Used linear up log down method. Allowed WinNonlin to pick optimal terminal phase (WinNonlin will accept Rsq adjusted >0.7).
Other analysis to assess adequate fit. Visual inspection of data. AUCextrap should be <15%.

[1] = 70 mg, Table 8, Patient 115-024-001, Day 1, 70 mg QD oral, Pantoprazole No
[2] = 70 mg, Table 8, Patient 115-024-001, Day 15, 70 mg QD oral, Pantoprazole No
[3] = 100 mg, Table 9, Patient 115-002-009, Day 1, 100 mg QD oral, Pantoprazole No
[4] = 100 mg, Table 9, Patient 115-002-010, Day 1, 100 mg QD oral, Pantoprazole No
[5] = 100 mg, Table 9, Patient 115-002-011, Day 1, 100 mg QD oral, Pantoprazole No
[6] = 100 mg, Table 9, Patient 115-002-011, Day 15, 100 mg QD oral, Pantoprazole No
[7] = 100 mg, Table 9, Patient 115-002-012, Day 1, 100 mg QD oral, Pantoprazole No
[8] = 100 mg, Table 9, Patient 115-002-012, Day 15, 100 mg QD oral, Pantoprazole No
[9] = 140 mg, Table 10, Patient 115-002-006, Day 1, Dose 140 mg QD oral, Concomitant Pantoprazole No
[10] = 140 mg, Table 10, Patient 115-002-006, Day 15, Dose 140 mg QD oral, Concomitant Pantoprazole No
[11] = 140 mg, Table 10, Patient 115-024-005, Day 1, Dose 140 mg QD oral, Concomitant Pantoprazole Yes
[12] = 140 mg, Table 10, Patient 115-024-005, Day 15, Dose 140 mg QD oral, Concomitant Pantoprazole Yes
[13] = 140 mg, Table 10, Patient 115-024-013, Day 1, Dose 140 mg QD oral, Concomitant Pantoprazole Yes
[14] = 140 mg, Table 10, Patient 115-024-013, Day 15, Dose 140 mg QD oral, Concomitant Pantoprazole Yes

SMILES: Cc1c(NS(=O)(=O)c2c(Cl)cc(-c3ccnc(N4CCNCC4)c3)cc2Cl)c(CC(C)C)nn1C [PCLX-001, 2,6-dichloro-N-(3-isobutyl-1,5-dimethyl-1H-pyrazol-4-yl)-4-(2-(piperazin-1-yl)pyridin-4-yl)benzene sulfonamide]
- Tmax (70 mg, Table 8, Patient 115-002-008, Day 15, 70 mg QD oral, Pantoprazole Yes): 8 h
- Cmax [1]: 1430 ng/mL
- AUC(0-t) [1]: 9400 ng·h/mL
- half-life [1]: 566 min
- Tmax [1]: 1 h
- Cmax [2]: 629 ng/mL
- AUC(0-t) [2]: 7300 ng·h/mL
- Tmax [2]: 4 h
- AUC(0-inf) [3]: 15400 ng·h/mL
- Cmax [3]: 1740 ng/mL
- AUC(0-t) [3]: 14800 ng·h/mL
- half-life [3]: 301 min
- Tmax [3]: 2 h
- AUC(0-inf) [4]: 22400 ng·h/mL
- Cmax [4]: 2490 ng/mL
- AUC(0-t) [4]: 20000 ng·h/mL
- half-life [4]: 430 min
- Tmax [4]: 2 h
- AUC(0-inf) [5]: 16200 ng·h/mL
- Cmax [5]: 1650 ng/mL
- AUC(0-t) [5]: 13200 ng·h/mL
- half-life [5]: 576 min
- Tmax [5]: 2 h
- Cmax [6]: 1160 ng/mL
- AUC(0-t) [6]: 17900 ng·h/mL
- Tmax [6]: 4 h
- Cmax [7]: 1210 ng/mL
- AUC(0-t) [7]: 12600 ng·h/mL
- Tmax [7]: 4 h
- AUC(0-inf) [8]: 19400 ng·h/mL
- Cmax [8]: 1530 ng/mL
- AUC(0-t) [8]: 17000 ng·h/mL
- half-life [8]: 454 min
- Tmax [8]: 2 h
- AUC(0-inf) [9]: 24200 ng·h/mL
- Cmax [9]: 2710 ng/mL
- AUC(0-t) [9]: 21200 ng·h/mL
- half-life [9]: 475 min
- Tmax [9]: 0.5 h
- AUC(0-inf) [10]: 41900 ng·h/mL
- Cmax [10]: 2200 ng/mL
- AUC(0-t) [10]: 26000 ng·h/mL
- half-life [10]: 984 min
- Tmax [10]: 2 h
- AUC(0-inf) [11]: 4160 ng·h/mL
- Cmax [11]: 406 ng/mL
- AUC(0-t) [11]: 3630 ng·h/mL
- half-life [11]: 454 min
- Tmax [11]: 1 h
- AUC(0-inf) [12]: 7180 ng·h/mL
- Cmax [12]: 295 ng/mL
- AUC(0-t) [12]: 4320 ng·h/mL
- half-life [12]: 1040 min
- Tmax [12]: 2 h
- AUC(0-inf) [13]: 11500 ng·h/mL
- Cmax [13]: 2190 ng/mL
- AUC(0-t) [13]: 10900 ng·h/mL
- half-life [13]: 352 min
- Tmax [13]: 1 h
- AUC(0-inf) [14]: 14300 ng·h/mL
- Cmax [14]: 1510 ng/mL
- AUC(0-t) [14]: 11000 ng·h/mL
- half-life [14]: 606 min
- Tmax [14]: 1 h
- peak plasma concentrations versus concentrations active in cultured cells (patients 1, 2 and 3, 20 mg oral daily): exceeded those needed to suppress cultured human cancer cell growth
- trough plasma concentrations (immediately prior to dosing on day 2, 15, and 22) (patients 1, 2 and 3, 20 mg oral daily, versus allometric scaling from mice, rats, dogs): higher than anticipated
- effect of pantoprazole on systemic exposure / oral absorption (patients taking pantoprazole vs not): lower in patients taking pantoprazole; also recorded: reduces oral absorption
